From PubChem BioAssay AID330 (DTP/NCI, 2004)
Where “and” joins values, the source holds several entries; their conditions need not be identical. Equal entries are not always repeated. Inconclusive results and toxic doses are left out.

Tested on: P388 leukemia ip, CD2F1 mice, survival T/C
Assay: NCI In Vivo Anticancer Drug Screen. Data for tumor model P388 Leukemia (intraperitoneal) in CD2F1 (CDF1) mice
Conditions: endpoint: median survival time, higher = longer survival
Summary of the method: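 Mice carrying the transplanted tumor received test compound or vehicle. Survival was recorded in each group, and the value is the treated-group measurement divided by that of the vehicle-treated control group.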

## CO[C@H](C(=O)[C@@H](O)[C@@H](C)O)[C@@H]1Cc2cc3cc(OC4CC(OC5CC(O)C(O)C(C)O5)C(O)C(C)O4)c(C)c(O)c3c(O)c2C(=O)[C@H]1OC1CC(OC2CC(OC3CC(C)(O)C(O)C(C)O3)C(O)C(C)O2)C(O)C(C)O1 (stereo partly drawn)
dose: 0.01 mg/kg/injection, schedule: Q01DX009 (ip), vehicle: saline
  T/C: 100 % of control
dose: 0.02 mg/kg/injection, schedule: Q01DX009 (sc), vehicle: saline
  T/C: 100 % of control
dose: 0.03 mg/kg/injection, schedule: Q01DX001 (ip), vehicle: saline
  T/C: 100 % of control
dose: 0.03 mg/kg/injection, schedule: Q01DX001 (sc), vehicle: saline
  T/C: 104 % of control
dose: 0.03 mg/kg/injection, schedule: Q01DX005 (iv), vehicle: saline
  T/C: 100 % of control
dose: 0.03 mg/kg/injection, schedule: Q01DX009 (ip), vehicle: saline
  T/C: 100 % of control
dose: 0.03 mg/kg/injection, schedule: Q01DX009 (sc), vehicle: saline
  T/C: 104 % of control
dose: 0.05 mg/kg/injection, schedule: Q01DX009 (ip), vehicle: water
  T/C: 109 % of control and 110 % of control
dose: 0.05 mg/kg/injection, schedule: Q01DX010 (ip), vehicle: water
  T/C: 100 % of control
dose: 0.06 mg/kg/injection, schedule: Q01DX001 (ip), vehicle: saline
  T/C: 100 % of control
dose: 0.06 mg/kg/injection, schedule: Q01DX001 (sc), vehicle: saline
  T/C: 104 % of control
dose: 0.06 mg/kg/injection, schedule: Q01DX005 (iv), vehicle: saline
  T/C: 100 % of control
dose: 0.06 mg/kg/injection, schedule: Q01DX009 (ip), vehicle: saline
  T/C: 100 % of control
dose: 0.06 mg/kg/injection, schedule: Q01DX009 (sc), vehicle: saline
  T/C: 100 % of control
dose: 0.1 mg/kg/injection, schedule: Q01DX009 (ip), vehicle: water
  T/C: 115 % of control
dose: 0.1 mg/kg/injection, schedule: Q01DX015 (ip), vehicle: water
  T/C: 100 % of control and 109 % of control
dose: 0.12 mg/kg/injection, schedule: Q01DX009 (ip), vehicle: clinical formulation
  T/C: 103 % of control and 104 % of control and 108 % of control
dose: 0.12 mg/kg/injection, schedule: Q01DX009 (ip), vehicle: water
  T/C: 111 % of control and 114 % of control
dose: 0.13 mg/kg/injection, schedule: Q01DX001 (ip), vehicle: saline
  T/C: 100 % of control
dose: 0.13 mg/kg/injection, schedule: Q01DX001 (sc), vehicle: saline
  T/C: 100 % of control
dose: 0.13 mg/kg/injection, schedule: Q01DX005 (ip), vehicle: water
  T/C: 106 % of control and 107 % of control
dose: 0.13 mg/kg/injection, schedule: Q01DX005 (iv), vehicle: saline
  T/C: 100 % of control
dose: 0.13 mg/kg/injection, schedule: Q01DX009 (ip), vehicle: water
  T/C: 100 % of control
dose: 0.13 mg/kg/injection, schedule: Q01DX009 (sc), vehicle: saline
  T/C: 100 % of control
dose: 0.16 mg/kg/injection, schedule: Q01DX009 (ip), vehicle: saline
  T/C: 99 % of control
dose: 0.2 mg/kg/injection, schedule: Q01DX009 (ip), vehicle: water
  T/C: 118 % of control and 120 % of control
dose: 0.2 mg/kg/injection, schedule: Q01DX015 (ip), vehicle: water
  T/C: 109 % of control
dose: 0.22 mg/kg/injection, schedule: Q01DX005 (ip), vehicle: clinical formulation
  T/C: 108 % of control
dose: 0.25 mg/kg/injection, schedule: Q01DX001 (ip), vehicle: saline
  T/C: 100 % of control (2×) and 118 % of control
dose: 0.25 mg/kg/injection, schedule: Q01DX001 (sc), vehicle: saline
  T/C: 100 % of control
dose: 0.25 mg/kg/injection, schedule: Q01DX005 (ip), vehicle: water
  T/C: 108 % of control and 116 % of control
dose: 0.25 mg/kg/injection, schedule: Q01DX005 (iv), vehicle: saline
  T/C: 100 % of control
dose: 0.25 mg/kg/injection, schedule: Q01DX009 (ip), vehicle: clinical formulation
  T/C: 105 % of control and 109 % of control
dose: 0.25 mg/kg/injection, schedule: Q01DX009 (oral), vehicle: saline
  T/C: 109 % of control
dose: 0.25 mg/kg/injection, schedule: Q01DX009 (sc), vehicle: saline
  T/C: 100 % of control
dose: 0.25 mg/kg/injection, schedule: Q03HX008 (ip), vehicle: saline
  T/C: 108 % of control
dose: 0.25 mg/kg/injection, schedule: Q04DX024 (ip), vehicle: saline
  T/C: 116 % of control
dose: 0.25 mg/kg/injection, schedule: Q08DX002 (ip), vehicle: saline
  T/C: 118 % of control
dose: 0.27 mg/kg/injection, schedule: Q01DX009 (ip), vehicle: saline
  T/C: 99 % of control
dose: 0.3 mg/kg/injection, schedule: Q01DX015 (ip), vehicle: water
  T/C: 104 % of control and 118 % of control
dose: 0.36 mg/kg/injection, schedule: Q01DX005 (ip), vehicle: clinical formulation
  T/C: 105 % of control
dose: 0.4 mg/kg/injection, schedule: Q01DX015 (ip), vehicle: water
  T/C: 109 % of control
dose: 0.45 mg/kg/injection, schedule: Q01DX009 (ip), vehicle: saline
  T/C: 102 % of control
dose: 0.5 mg/kg/injection, schedule: Q01DX001 (ip), vehicle: saline
  T/C: 100 % of control (2×) and 113 % of control
dose: 0.5 mg/kg/injection, schedule: Q01DX001 (oral), vehicle: saline
  T/C: 100 % of control
dose: 0.5 mg/kg/injection, schedule: Q01DX001 (sc), vehicle: saline
  T/C: 100 % of control
dose: 0.5 mg/kg/injection, schedule: Q01DX005 (ip), vehicle: water
  T/C: 111 % of control and 114 % of control
dose: 0.5 mg/kg/injection, schedule: Q01DX005 (iv), vehicle: saline
  T/C: 100 % of control
dose: 0.5 mg/kg/injection, schedule: Q01DX009 (ip), vehicle: clinical formulation
  T/C: 116 % of control
dose: 0.5 mg/kg/injection, schedule: Q01DX009 (ip), vehicle: saline
  T/C: 113 % of control
dose: 0.5 mg/kg/injection, schedule: Q01DX009 (ip), vehicle: water
  T/C: 150 % of control
dose: 0.5 mg/kg/injection, schedule: Q01DX009 (oral), vehicle: saline
  T/C: 109 % of control
dose: 0.5 mg/kg/injection, schedule: Q01DX009 (sc), vehicle: saline
  T/C: 100 % of control
dose: 0.5 mg/kg/injection, schedule: Q01DX015 (ip), vehicle: water
  T/C: 118 % of control
dose: 0.5 mg/kg/injection, schedule: Q03HX008 (ip), vehicle: saline
  T/C: 108 % of control
dose: 0.6 mg/kg/injection, schedule: Q01DX005 (ip), vehicle: clinical formulation
  T/C: 113 % of control
dose: 0.65 mg/kg/injection, schedule: Q01DX009 (ip), vehicle: water
  T/C: 150 % of control
dose: 0.75 mg/kg/injection, schedule: Q01DX009 (ip), vehicle: saline
  T/C: 104 % of control
dose: 1.0 mg/kg/injection, schedule: Q01DX001 (ip), vehicle: saline
  T/C: 118 % of control
dose: 1.0 mg/kg/injection, schedule: Q01DX001 (oral), vehicle: saline
  T/C: 104 % of control
dose: 1.0 mg/kg/injection, schedule: Q01DX001 (sc), vehicle: saline
  T/C: 104 % of control
dose: 1.0 mg/kg/injection, schedule: Q01DX005 (ip), vehicle: water
  T/C: 118 % of control
dose: 1.0 mg/kg/injection, schedule: Q01DX009 (ip), vehicle: clinical formulation
  T/C: 104 % of control
dose: 1.0 mg/kg/injection, schedule: Q01DX009 (oral), vehicle: saline
  T/C: 109 % of control
dose: 1.0 mg/kg/injection, schedule: Q03HX008 (ip), vehicle: saline
  T/C: 116 % of control
dose: 1.0 mg/kg/injection, schedule: Q08DX002 (ip), vehicle: saline
  T/C: 109 % of control
dose: 2.0 mg/kg/injection, schedule: Q01DX001 (oral), vehicle: saline
  T/C: 100 % of control
dose: 2.0 mg/kg/injection, schedule: Q01DX009 (ip), vehicle: clinical formulation
  T/C: 116 % of control
dose: 2.0 mg/kg/injection, schedule: Q01DX009 (oral), vehicle: saline
  T/C: 109 % of control
dose: 4.0 mg/kg/injection, schedule: Q01DX001 (oral), vehicle: saline
  T/C: 100 % of control

## CCCNC(=O)N1C2C3CCC(C)(OC3(C)C)C21 (stereo not drawn)
dose: 50.0 mg/kg/injection, schedule: Q01DX005 (ip), vehicle: saline
  T/C: 106 % of control
dose: 100.0 mg/kg/injection, schedule: Q01DX005 (ip), vehicle: saline
  T/C: 100 % of control
dose: 200.0 mg/kg/injection, schedule: Q01DX005 (ip), vehicle: saline
  T/C: 98 % of control
